Measured values reported in US7754707B2, “Methods of treatment of chronic immune disease” (R.E.D. Laboratories, N.V./S.A., priority 2002, dated 2010).
Entries after “also recorded” stand apart in the source; their conditions may differ.

Key:
[1] = system: RNase L Protein in the Human Monocytic Leukemia Cell Line U937; experiment: RNase L fragmentation (2-5A binding proteins) in U937 cells, treatment Regimen #1; assay type: cell-based; conditions: FIGS. 2 and 3 (Regimens #1 and #2)
Text: (§1) In the first condition (Regimen #1), confluent cultures of U937 cells were allowed to remain in culture for an additional 7 days without feeding or media supplementation in order to induce the cells to begin to undergo apoptosis, resulting in the fragmentation of native RNase L (among other proteins).

elastase = biological target: T1, elastase (Homo sapiens, UniProt P08246); experiment: Fragmentation of radio labeled rRNase L by cytoplasmic protein extracts of cefoperazone-treated U937 cells; assay type: cell-based; conditions: extracts of U937 cells treated 72 hours with 10-1000 micrograms/mL; 15 micrograms extract, 5 minutes at 37 C; FIG. 4
T1 construct: 15 micrograms of U937 cell cytoplasmic protein extract was mixed with 0.1 microgram of ^32P-2-5A-radio labeled rRNase L; endogenous in cells; host or cells: U937 cells (cytoplasmic protein extract)
T1 sequence (P08246 30-267): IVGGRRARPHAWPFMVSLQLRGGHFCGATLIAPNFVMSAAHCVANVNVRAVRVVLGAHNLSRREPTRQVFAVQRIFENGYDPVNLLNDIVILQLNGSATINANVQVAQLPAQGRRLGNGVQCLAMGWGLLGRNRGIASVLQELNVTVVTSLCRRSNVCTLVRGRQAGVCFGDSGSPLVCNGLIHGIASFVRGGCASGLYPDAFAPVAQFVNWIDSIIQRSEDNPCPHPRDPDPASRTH
Experimental: as §1
Briefly, 15 micrograms of U937 cell cytoplasmic protein extract was mixed with 0.1 microgram of ^32P-2-5A-radio labeled rRNase L for a fixed incubation period (5 minutes) at 37 C. The reaction was terminated by the addition of 2×SDS-PAGE loading buffer, the samples were prepared and electrophoresed as described above and analyzed using densitometry.

alpha-1-antitrypsin = conditions: through direct interaction of the drug with HOCl; cited from earlier work

Structure (SMILES): CCN1CCN(C(=O)N[C@@H](C(=O)N[C@@H]2C(=O)N3C(C(=O)O)=C(CSc4nnnn4C)CS[C@H]23)c2ccc(O)cc2)C(=O)C1=O [cefoperazone]
- production of the low molecular weight fragment of native RNase L protein [1]: inhibition is dose-dependent
- elastase activity (amount of LMW rRNase L protein generated from pre-labeled HMW rRNase L) (elastase): inhibition occurs in a dose-dependent fashion; also recorded: marked inhibition of elastase activity
- level of inactivation of alpha-1-antitrypsin by activated neutrophils (alpha-1-antitrypsin): reduce the level of inactivation of alpha-1-antitrypsin
